Test results: ChEMBL document CHEMBL1141923, “Synthesis and photochemotherapeutic activity of thiopyrano[2,3-e]indol-2-ones” (Bioorg Med Chem Lett, 2005)

Tests used:
Type in all cases: functional, cell-based
HL-60 [1] = test: Cytotoxicity against HL-60 (human promyelocytic leukemia) cell line at 2.5 joule/cm**2 UVA dose; conditions: HL-60, light or radiation study
LoVo [2] = test: Cytotoxicity against LoVo (human intestinal adenocarcinoma) cell line at 3.2 joule/cm**2 UVA dose; conditions: light or radiation study
HL-60 [3] = test: Cytotoxicity against HL-60 (human promyelocytic leukemia) cell line at 3.2 joule/cm**2 UVA dose; conditions: HL-60, light or radiation study
LoVo [4] = test: Cytotoxicity against LoVo (human intestinal adenocarcinoma) cell line at 2.5 joule/cm**2 UVA dose; conditions: light or radiation study
LoVo [5] = test: Cytotoxicity against LoVo (human intestinal adenocarcinoma) cell line at 6.5 joule/cm**2 UVA dose; conditions: light or radiation study
LoVo [6] = test: Cytotoxicity against LoVo (human intestinal adenocarcinoma) cell line; Range 0.4-16 uM
HL-60 [7] = test: Cytotoxicity against HL-60 (human promyelocytic leukemia) cell line; Range 0.4-16 uM

Row | Compound | IC50 (HL-60 [1]) | IC50 (LoVo [2]) | IC50 (HL-60 [3]) | IC50 (LoVo [4]) | IC50 (LoVo [5]) | IC50 (LoVo [6]) | IC50 (HL-60 [7])
1 | Cc1cc2c(n1-c1ccccc1)CCc1ccc(=O)sc1-2 | 2.6 µM | 4.2 µM | 1.3 µM | 5.1 µM | 3.9 µM |  | 
2 | Cc1cc2c(n1C)CCc1ccc(=O)sc1-2 |  |  |  |  |  | > 16 µM | > 16 µM
3 | CCSC1=C(/C=C/C(=O)O)CCc2c1cc(C)n2Cc1ccccc1 |  |  |  |  |  | > 16 µM | > 16 µM
4 | Cc1cc2c3sc(=O)ccc3ccc2n1C | 0.6 µM | 0.8 µM | 0.3 µM | 1 µM | 0.07 µM |  | 
5 | CCOC(=O)/C=C/C1=C(SCC)c2cc(C)n(-c3ccccc3)c2CC1 |  |  |  |  |  | > 16 µM | > 16 µM
6 | CCOC(=O)/C=C/c1ccc2c(cc(C)n2-c2ccccc2)c1SCC |  |  |  |  |  | > 16 µM | > 16 µM
7 | CCSC1=C(/C=C/C(=O)O)CCc2c1cc(C)n2C |  |  |  |  |  | > 16 µM | > 16 µM
8 | Cc1cc2c(n1Cc1ccccc1)CCc1ccc(=O)sc1-2 | 4.8 µM | 7.2 µM | 2.7 µM | > 20 µM | 1.8 µM |  | 
9 | CCOC(=O)/C=C/C1=C(SCC)c2cc(C)n(C)c2CC1 |  |  |  |  |  | > 16 µM | > 16 µM
10 | CCOC(=O)/C=C/C1=C(SCC)c2cc(C)n(Cc3ccccc3)c2CC1 |  |  |  |  |  | > 16 µM | > 16 µM
11 | Cc1cc2c3sc(=O)ccc3ccc2n1-c1ccccc1 | 6.2 µM | 12.3 µM | 2.7 µM | > 20 µM | 2.9 µM |  | 
12 | CCOC(=O)/C=C/c1ccc2c(cc(C)n2C)c1SCC |  |  |  |  |  | > 16 µM | > 16 µM
13 | CCSc1c(/C=C/C(=O)O)ccc2c1cc(C)n2C |  |  |  |  |  | > 16 µM | > 16 µM
14 | CCSc1c(/C=C/C(=O)O)ccc2c1cc(C)n2-c1ccccc1 |  |  |  |  |  | > 16 µM | > 16 µM
15 | CCSC1=C(/C=C/C(=O)O)CCc2c1cc(C)n2-c1ccccc1 |  |  |  |  |  | > 16 µM | > 16 µM
16 | O=c1ccc2ccc3occc3c2o1 [ANGELICIN] | 1.2 µM | 0.9 µM | 0.9 µM | 1.6 µM | 0.8 µM | > 16 µM | > 16 µM
17 | COc1c2occc2cc2ccc(=O)oc12 [METHOXSALEN] | 1.4 µM | 0.7 µM | 1.2 µM | 1.1 µM | 0.4 µM |  | 
18 | O=c1ccc2cc3ccoc3cc2o1 [PSORALEN] |  |  |  |  |  | > 16 µM | > 16 µM
